From patent US12662470B2, “Hydroxy and (halo)alkoxy substituted tetrahydrofurans as modulators of sodium channels” (VERTEX PHARMACEUTICALS INCORPORATED, priority 2021, dated 2026)

Target: human NaV 1.8 (Homo sapiens, UniProt Q9Y5Y9)
Assay: E-VIPR Assay Detecting and Measuring NaV Inhibition Properties
Assay type: cell-based
Conditions: HEK cells expressing a truncated form of human NaV 1.8
Text: Sodium ion channels are voltage-dependent proteins that can be activated by inducing membrane voltage changes by applying electric fields. The electrical stimulation instrument and methods of use, referred to as E-VIPR, are described in International Publication No. WO 2002/008748 A3 and C.-J. Huang et al. Characterization of voltage-gated sodium channel blockers by electrical stimulation and fluorescence detection of membrane potential, 24 Nature Biotech. 439-46 (2006), both of which are incorporated by reference in their entirety. The instrument comprises a microtiter plate handler, an optical system for exciting the coumarin dye while simultaneously recording the coumarin and oxonol emissions, a waveform generator, a current- or voltage-controlled amplifier, and parallel electrode pairs that are inserted into assay plate wells. Under integrated computer control, this instrument passes user-programmed electrical stimulus protocols to cells within the wells of the microtiter plate.
16-20 hours prior to running the assay on E-VIPR, HEK cells expressing a truncated form of human NaV 1.8 with full channel activity were seeded into microtiter 384-well plates, pre-coated with matrigel, at a density of 25,000 cells per well. 2.5-5% KIR2.1 Bacmam virus was added to the final cell suspension before seeding into cell plates. HEK cells were grown in Dulbecco's Modified Eagle's Medium (DMEM) supplemented with 10% FBS (Fetal Bovine Serum, qualified; Sigma #F4135), 1% NEAA (Non-Essential Amino Acids, Gibco #11140), 1% HEPES (Gibco #15630), 1% Pen-Strep (Penicillin-Streptomycin; Gibco #15140) and 5 μg/ml Blasticidin (Gibco #R210-01). Cells were expanded in vented cap cell culture flasks, with 90-95% humidity and 5% CO2.
Reagents and Stock Solutions:
• 100 mg/mL Pluronic F-127 (Sigma #P2443), in dry DMSO • Compound Plates: Corning 384-well Polypropylene Round Bottom #3656 • Cell Plates: 384-well tissue culture treated plates (Greiner #781091-2B)
2.5-5% KIR 2.1 Bacmam virus (produced in-house), prepared as described in Section 3.3 of J. A. Fornwald et al., Gene Expression in Mammalian Cells Using BacMam, a Modified Baculovirus System, 1350 Methods in Molecular Biology 95-116 (2016), the entire contents of which are incorporated by reference. The concentration used can be dependent on viral titer of each batch.
5 mM DiSBAC6(3), a voltage sensitive oxonol acceptor (CAS number 169211-44-3; 5-[3-(1,3-dihexylhexahydro-4,6-dioxo-2-thioxo-5-pyrimidinyl)-2-propen-1-ylidene]-1,3-dihexyldihydro-2-thioxo-4,6(1H,5H)-pyrimidinedione), in dry DMSO. The preparation of DiSBAC6(3) is analogous to that of DiSBAC4(3) as described in Voltage Sensing by Fluorescence Resonance Energy Transfer in Single Cells, Gonzalez, J. E. and Tsien, R. Y. (1995) Biophys. J. 69, 1272-1280.
5 mM CC2-DMPE, a commercially available membrane-bound coumarin phospholipid FRET donor (ThermoFisher Scientific catalog number K1017, CAS number 393782-57-5; tetradecanoic acid, 1,1′-[(1R)-1-[8-(6-chloro-7-hydroxy-2-oxo-2H-1-benzopyran-3-yl)-3-hydroxy-3-oxido-8-oxo-2,4-dioxa-7-aza-3-phosphaoct-1-yl]-1,2-ethanediyl] ester) was prepared in dry DMSO. See also, Improved indicators of cell membrane potential that use fluorescence resonance energy transfer, Gonzalez, J. E. and Tsien, R. Y. (1997) Chem. Biol. 4, 269-277.
Voltage Assay Background Suppression Compound (VABSC-1) is prepared in H2O (89-363 mM, range used to maintain solubility)
Human Serum (HS, Millipore #S1P1-01KL, or Sigma SLBR5469V and SLBR5470V as a 50%/50% mixture, for 25% assay final concentration)
• Sodium Chloride 160 mM (9.35 g/L), Potassium Chloride, 4.5 mM (0.335 g/L), Glucose 10 mM (1.8 g/L), Magnesium Chloride (Anhydrous) 1 mM (0.095 g/L), Calcium Chloride 2 mM (0.222 g/L), HEPES 10 mM (2.38 g/L) in water. […]

[1] = compound number without "*" (not marked as run in the presence of human serum)
[2] = compound number with "*": assay performed in the presence of human serum

Sequence of human NaV 1.8 (Q9Y5Y9 126-1722 limits assumed): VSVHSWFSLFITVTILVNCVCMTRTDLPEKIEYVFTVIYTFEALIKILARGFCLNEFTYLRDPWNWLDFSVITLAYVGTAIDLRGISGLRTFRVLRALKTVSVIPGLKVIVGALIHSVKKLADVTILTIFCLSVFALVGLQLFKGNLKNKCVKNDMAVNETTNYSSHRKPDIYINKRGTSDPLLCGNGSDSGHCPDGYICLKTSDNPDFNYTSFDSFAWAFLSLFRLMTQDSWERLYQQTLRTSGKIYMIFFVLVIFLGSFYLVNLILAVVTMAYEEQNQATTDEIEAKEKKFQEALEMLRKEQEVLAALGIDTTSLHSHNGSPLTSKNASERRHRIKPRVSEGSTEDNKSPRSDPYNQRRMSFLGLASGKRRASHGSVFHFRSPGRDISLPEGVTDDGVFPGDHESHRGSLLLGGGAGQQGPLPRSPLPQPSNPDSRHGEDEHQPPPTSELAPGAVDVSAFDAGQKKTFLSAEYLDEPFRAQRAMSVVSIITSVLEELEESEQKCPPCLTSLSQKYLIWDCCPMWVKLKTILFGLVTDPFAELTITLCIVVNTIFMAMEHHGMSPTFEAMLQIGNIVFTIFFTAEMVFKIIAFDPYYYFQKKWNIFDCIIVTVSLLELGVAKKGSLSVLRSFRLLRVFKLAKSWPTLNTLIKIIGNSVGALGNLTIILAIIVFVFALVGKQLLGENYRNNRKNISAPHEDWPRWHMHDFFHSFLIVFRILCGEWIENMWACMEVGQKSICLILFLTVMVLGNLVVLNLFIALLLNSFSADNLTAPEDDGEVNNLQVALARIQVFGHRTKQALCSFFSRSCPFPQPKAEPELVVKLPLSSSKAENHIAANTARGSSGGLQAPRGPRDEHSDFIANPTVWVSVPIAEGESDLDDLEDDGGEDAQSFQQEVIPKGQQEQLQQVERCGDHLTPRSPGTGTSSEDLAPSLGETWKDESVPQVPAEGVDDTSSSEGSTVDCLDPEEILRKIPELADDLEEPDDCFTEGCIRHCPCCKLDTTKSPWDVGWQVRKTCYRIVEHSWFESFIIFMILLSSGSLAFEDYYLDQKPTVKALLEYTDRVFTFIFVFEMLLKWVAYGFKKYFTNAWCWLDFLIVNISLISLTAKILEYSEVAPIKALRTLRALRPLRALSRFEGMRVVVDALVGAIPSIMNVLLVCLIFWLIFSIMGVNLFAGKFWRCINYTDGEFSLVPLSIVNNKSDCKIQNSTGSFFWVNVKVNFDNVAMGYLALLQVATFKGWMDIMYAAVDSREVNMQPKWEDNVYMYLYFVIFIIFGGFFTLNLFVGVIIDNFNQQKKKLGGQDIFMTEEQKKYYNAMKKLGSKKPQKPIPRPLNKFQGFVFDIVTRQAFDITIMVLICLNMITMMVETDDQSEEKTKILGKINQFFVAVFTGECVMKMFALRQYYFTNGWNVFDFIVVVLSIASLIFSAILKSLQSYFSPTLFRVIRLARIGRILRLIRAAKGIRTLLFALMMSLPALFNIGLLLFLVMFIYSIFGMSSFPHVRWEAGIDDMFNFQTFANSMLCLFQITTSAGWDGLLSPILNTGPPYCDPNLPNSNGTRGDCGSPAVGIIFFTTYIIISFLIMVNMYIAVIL

IC50 [1] [µM]	IC50 [2] [µM]	Compound
0.1 to 1	–	COc1c([C@H]2[C@H](C(=O)Nc3ccnc(C(N)=O)c3)O[C@@](C)(C(F)(F)F)[C@H]2O)ccc(F)c1F [Compound 2, 4-((2R,3R,4S,5R)-3-(3,4-difluoro-2-methoxyphenyl)-4-hydroxy-5-methyl-5-(trifluoromethyl)tetrahydrofuran-2-carboxamido)picolinamide]
0.1 to 1	–	CCO[C@H]1[C@@H](c2ccc(F)c(F)c2OC)[C@H](C(=O)Nc2ccnc(C(N)=O)c2)O[C@H]1C [Compound 13, 4-((2R,3R,4S,5S)-3-(3,4-difluoro-2-methoxyphenyl)-4-ethoxy-5-methyltetrahydrofuran-2-carboxamido)picolinamide]
< 0.01	–	CCO[C@H]1[C@@H](c2ccc(F)c(F)c2OC)[C@H](C(=O)Nc2ccnc(C(N)=O)c2)O[C@@]1(C)C(F)(F)F [Compound 25, 4-((2R,3R,4S,5R)-3-(3,4-difluoro-2-methoxyphenyl)-4-ethoxy-5-methyl-5-(trifluoromethyl)tetrahydrofuran-2-carboxamido)picolinamide]
–	≥ 1	COc1c([C@@H]2[C@@H](C(=O)Nc3ccnc(C(N)=O)c3)OC(C)(C)[C@@H]2OC)ccc(F)c1F (stereo in doubt) [Compound 19, rel-4-((2S,3S,4R)-3-(3,4-difluoro-2-methoxyphenyl)-4-methoxy-5,5-dimethyltetrahydrofuran-2-carboxamido)picolinamide]
–	≥ 1	COc1c([C@@H]2[C@H](OC)[C@H](C)O[C@H]2C(=O)Nc2ccnc([C@](C)(O)CO)c2)ccc(F)c1F (single isomer, unassigned) [Compound 12, rel-(2R*,3R*,4S*,5S*)-3-(3,4-difluoro-2-methoxyphenyl)-N-(2-(1,2-dihydroxypropan-2-yl)pyridin-4-yl)-4-methoxy-5-methyltetrahydrofuran-2-carboxamide]
–	≥ 1	COc1c([C@@H]2[C@@H](C(=O)Nc3ccnc([C@H](O)CO)c3)OC(C)(C)[C@@H]2OC)ccc(F)c1F (single isomer, unassigned) [Compound 23]
–	0.1 to 1	COc1c([C@H]2[C@H](C(=O)Nc3ccnc([C@H](O)CO)c3)OC(C)(C)[C@H]2OC)ccc(F)c1F (single isomer, unassigned) [Compound 22]
< 0.01	–	CO[C@H]1[C@@H](c2ccc(F)c(F)c2C)[C@H](C(=O)Nc2ccnc(C(N)=O)c2)O[C@@]1(C)C(F)(F)F [Compound 7, 4-((2R,3R,4S,5R)-3-(3,4-difluoro-2-methylphenyl)-4-methoxy-5-methyl-5-(trifluoromethyl)tetrahydrofuran-2-carboxamido)picolinamide]
–	≥ 1	COc1c([C@@H]2[C@@H](C(=O)Nc3ccnc([C@@H](O)CO)c3)OC(C)(C)[C@@H]2OC)ccc(F)c1F (single isomer, unassigned) [Compound 21]
–	≥ 1	COc1c([C@@H]2[C@H](OC)[C@H](C)O[C@H]2C(=O)Nc2ccnc([C@@H](O)CO)c2)ccc(F)c1F (single isomer, unassigned) [Compound 9, rel-(2R*,3R*,4S*,5S*)-3-(3,4-difluoro-2-methoxyphenyl)-N-(2-(1,2-dihydroxyethyl)pyridin-4-yl)-4-methoxy-5-methyltetrahydrofuran-2-carboxamide]
< 0.01	–	COc1c([C@H]2[C@H](C(=O)Nc3ccnc(C(N)=O)c3)O[C@@](C)(C(F)(F)F)[C@H]2OC)ccc(F)c1F [Compound 1, 4-((2R,3R,4S,5R)-3-(3,4-difluoro-2-methoxyphenyl)-4-methoxy-5-methyl-5-(trifluoromethyl)tetrahydrofuran-2-carboxamido)picolinamide]
≥ 1	–	COc1c([C@@H]2[C@H](OC(C)C)[C@H](C)O[C@H]2C(=O)Nc2ccc(CO)nc2)ccc(F)c1F [Compound 17, (2R,3R,4S,5S)-3-(3,4-difluoro-2-methoxyphenyl)-N-(6-(hydroxymethyl)pyridin-3-yl)-4-isopropoxy-5-methyltetrahydrofuran-2-carboxamide]
–	≥ 1	COc1c([C@@H]2[C@H](OC)[C@H](C)O[C@H]2C(=O)Nc2ccnc([C@@](C)(O)CO)c2)ccc(F)c1F (single isomer, unassigned) [Compound 11, rel-(2R*,3R*,4S*,5S*)-3-(3,4-difluoro-2-methoxyphenyl)-N-(2-(1,2-dihydroxypropan-2-yl)pyridin-4-yl)-4-methoxy-5-methyltetrahydrofuran-2-carboxamide]
0.1 to 1	–	COc1c([C@@H]2[C@H](OC)[C@H](C)O[C@H]2C(=O)Nc2ccnc(C(N)=O)c2)ccc(F)c1F [Compound 8, 4-((2R,3R,4S,5S)-3-(3,4-difluoro-2-methoxyphenyl)-4-methoxy-5-methyltetrahydrofuran-2-carboxamido)picolinamide]
